# From patent US20110262508A1, “ANTIMICROBIAL COMPOSITIONS, FORMULATIONS AND USES THEREOF” (priority 2007, published 2011)
# Where two headings read alike, the source gives them in different places. Peptide text beside a SMILES is read from it.
# How the values were obtained:
# [1] = tested on: A. baumannii ATCC 19606, Acinetobacter spp. ATCC 17903, Acinetobacter spp. ATCC 19004, E. coli BL21, S. aureus, S. typhimurium AroA, P. aeruginosa, P. …; assay: Antibacterial spectrum over the serial dilution panel (Table 6); format: cell-based; details: summary of Table 6
# Description: Synthetic peptides were tested for their ability to inhibit bacterial growth in liquid culture. The peptides were added at a concentration of between about 5 μM and about 10 μM to individual wells of 96-deep-well dishes that contained liquid growth media freshly inoculated with one of the following bacteria: A. baumannii ATCC Accession No. 19606, Acinetobacter spp. ATCC 17903, Acinetobacter spp. ATCC 19004, Escherichia coli strain BL21, S. aureus, S. typhimurium strain AroA, P. aeruginosa or P. pneumotropica. After 5-6 hours of shaking at 37° C., growth was measured as absorbance at 595 nm. As a control, cultures were grown in the presence of 0.1% acetonitrile (i.e., the concentration present in 10 μM peptide).
# [2] = tested on: S. typhimurium strain AroA; format: cell-based
# Description: Synthetic peptides were tested for their ability to inhibit bacterial growth in liquid culture. […] 19606, Acinetobacter spp. ATCC 17903, Acinetobacter spp. ATCC 19004, Escherichia coli strain BL21, S. aureus, S. typhimurium strain AroA, P. aeruginosa or P. pneumotropica. After 5-6 hours of shaking at 37° C., growth was measured as absorbance at 595 nm. As a control, cultures were grown in the presence of 0.1% acetonitrile (i.e., the concentration present in 10 μM peptide).
Compound,selectively inhibited growth of S. aureus [1],% inhibition of bacterial growth by peptide ([2]; 5 μM peptide),% inhibition of bacterial growth by peptide ([2]; 10 μM peptide),% inhibition of bacterial growth by peptide ([2]; 15 μM peptide),% inhibition of bacterial growth by peptide ([2]; 20 μM peptide),"selectively inhibited growth of Acinetobacter spp. ATCC 19004, and S. aureus [1]",% inhibition of bacterial growth by peptide ([2]; 12.5 μM peptide),% inhibition of bacterial growth by peptide ([2]; 17.5 μM peptide),selectively inhibited growth of Acinetobacter spp. ATCC 19004 [1],"selectively inhibited growth of A. baumannii ATCC Accession No. 19606, Acinetobacter spp. ATCC 17903, Acinetobacter spp. ATCC 19004, and S. aureus [1]"
CSCC[C@H](NC(=O)[C@H](CCCCN)NC(=O)[C@H](CC(C)C)NC(=O)[C@H](CC(C)C)NC(=O)[C@H](Cc1ccccc1)NC(=O)[C@H](Cc1ccccc1)NC(=O)[C@@H](N)Cc1ccccc1)C(=O)N[C@@H](CC(N)=O)C(=O)N[C@@H](Cc1ccc(O)cc1)C(=O)N[C@@H](CC(N)=O)C(=O)N[C@@H](C)C(=O)N[C@H](C(=O)N[C@@H](Cc1c[nH]cn1)C(=O)N[C@@H](CC(C)C)C(=O)N[C@@H](C)C(=O)NCC(=O)N[C@@H](CCCNC(=N)N)C(=O)N[C@@H](CCC(=O)O)C(=O)N[C@@H](Cc1ccccc1)C(=O)O)[C@@H](C)O [Ac88] (H-FFFLLKMNYNATHLAGREF-OH; N-terminus and C-terminus assumed),selectively inhibited growth,0%,0%,0%,13%,,,,,
C[C@H](NC(=O)[C@H](CO)NC(=O)[C@H](CCCNC(=N)N)NC(=O)CNC(=O)[C@H](CCCNC(=N)N)NC(=O)CNC(=O)[C@H](CO)NC(=O)[C@H](CO)NC(=O)[C@H](CCCNC(=N)N)NC(=O)CNC(=O)[C@@H]1CCCN1C(=O)[C@@H]1CCCN1C(=O)[C@H](CO)NC(=O)[C@H](CCCNC(=N)N)NC(=O)[C@@H]1CCCN1C(=O)[C@H](CO)NC(=O)[C@@H]1CCCN1C(=O)[C@@H](NC(=O)[C@H](CCCNC(=N)N)NC(=O)CNC(=O)[C@@H](N)Cc1c[nH]c2ccccc12)[C@@H](C)O)C(=O)N[C@@H](CO)C(=O)N[C@@H](CS)C(=O)O [Ac66] (H-WGRTPSPRSPPGRSSGRGRSASC-OH; N-terminus and C-terminus assumed),,,,0%,0%,selectively inhibited growth,0%,0%,,
C[C@@H](O)[C@H](NC(=O)[C@H](CS)NC(=O)[C@H](CO)NC(=O)[C@@H](N)Cc1c[nH]cn1)C(=O)N[C@H](C(=O)N1CCC[C@H]1C(=O)N[C@@H](CC(N)=O)C(=O)N[C@H](C(=O)N1CCC[C@H]1C(=O)N[C@@H](CCC(N)=O)C(=O)N[C@@H](CCC(N)=O)C(=O)N1CCC[C@H]1C(=O)N[C@@H](Cc1c[nH]cn1)C(=O)N1CCC[C@H]1C(=O)N[C@@H](Cc1c[nH]cn1)C(=O)N[C@@H](Cc1c[nH]cn1)C(=O)N[C@@H](CCCNC(=N)N)C(=O)N[C@@H](Cc1c[nH]cn1)C(=O)N[C@@H](CCCNC(=N)N)C(=O)N[C@@H](CCCNC(=N)N)C(=O)N[C@@H](Cc1c[nH]cn1)C(=O)N[C@@H](CCCNC(=N)N)C(=O)N[C@@H](Cc1c[nH]cn1)C(=O)O)[C@@H](C)O)[C@@H](C)O [Ac46] (H-HSCTTPNTPQQPHPHHRHRRHRH-OH; N-terminus and C-terminus assumed),,3%,16%,18%,36%,selectively inhibited growth,,,,
CC[C@H](C)[C@H](NC(=O)[C@H](Cc1ccccc1)NC(=O)[C@H](CCC(N)=O)NC(=O)[C@H](CO)NC(=O)[C@H](Cc1ccccc1)NC(=O)[C@H](Cc1c[nH]cn1)NC(=O)[C@H](CCCNC(=N)N)NC(=O)[C@H](Cc1c[nH]cn1)NC(=O)[C@@H](NC(=O)[C@H](CCCNC(=N)N)NC(=O)[C@H](CC(C)C)NC(=O)CNC(=O)[C@H](CC(C)C)NC(=O)[C@H](CC(=O)O)NC(=O)[C@H](CCCNC(=N)N)NC(=O)[C@@H](NC(=O)[C@H](CCC(N)=O)NC(=O)[C@H](CCCNC(=N)N)NC(=O)[C@@H](N)CCCNC(=N)N)C(C)C)C(C)C)C(=O)N[C@@H](CC(N)=O)C(=O)N[C@@H](CCCNC(=N)N)C(=O)N[C@@H](CO)C(=O)NCC(=O)O [Ac173] (H-RRQVRDLGLRVHRHFSQFINRSG-OH; N-terminus and C-terminus assumed),,,,0%,0%,,0%,0%,selectively inhibited growth,
"CC(C)C[C@H](NC(=O)[C@@H](NC(=O)[C@H](CCC(=O)O)NC(=O)[C@@H](NC(=O)[C@H](CCCNC(=N)N)NC(=O)CNC(=O)[C@@H](N)CCC(N)=O)C(C)C)C(C)C)C(=O)N[C@@H](Cc1ccc(O)cc1)C(=O)N[C@@H](CCCNC(=N)N)C(=O)NCC(=O)N[C@@H](CO)C(=O)N[C@@H](Cc1c[nH]c2ccccc12)C(=O)NCC(=O)N[C@H](C(=O)N[C@H](C(=O)N[C@@H](CS)C(=O)O)C(C)C)[C@@H](C)O [Ac175, reference compound] (H-QGRVEVLYRGSWGTVC-OH; N-terminus and C-terminus assumed)",selectively inhibited growth,3%,0%,0%,4%,,,,,
CC[C@H](C)[C@H](NC(=O)[C@H](CCCCN)NC(=O)[C@@H](NC(=O)[C@H](CCCNC(=N)N)NC(=O)[C@H](CO)NC(=O)[C@H](Cc1ccccc1)NC(=O)[C@H](CS)NC(=O)[C@H](CC(N)=O)NC(=O)[C@@H]1CCCN1C(=O)[C@H](CC(=O)O)NC(=O)CN)C(C)C)C(=O)N[C@@H](CC(C)C)C(=O)N[C@@H](C)C(=O)N[C@@H](CS)C(=O)O [Ac96] (H-GDPNCFSRVKILAC-OH),,,,6%,0%,selectively inhibited growth,0%,0%,,
C[C@H](NC(=O)[C@@H](NC(=O)CNC(=O)[C@@H]1CCCN1C(=O)[C@H](Cc1c[nH]cn1)NC(=O)[C@H](CCCNC(=N)N)NC(=O)[C@H](Cc1c[nH]cn1)NC(=O)[C@H](CCCNC(=N)N)NC(=O)[C@H](Cc1c[nH]cn1)NC(=O)[C@H](CCCNC(=N)N)NC(=O)[C@H](CCCNC(=N)N)NC(=O)[C@H](Cc1c[nH]cn1)NC(=O)[C@H](CCCNC(=N)N)NC(=O)[C@H](Cc1c[nH]cn1)NC(=O)[C@H](Cc1c[nH]cn1)NC(=O)[C@@H]1CCCN1C(=O)[C@H](Cc1c[nH]cn1)NC(=O)[C@@H]1CCCN1C(=O)[C@H](CCC(N)=O)NC(=O)[C@H](CCC(N)=O)NC(=O)[C@@H]1CCCN1C(=O)[C@@H](NC(=O)[C@@H](N)CC(N)=O)[C@@H](C)O)[C@@H](C)O)C(=O)O [Ac47] (H-NTPQQPHPHHRHRRHRHRHPGTA-OH; N-terminus and C-terminus assumed),,13%,25%,29%,50%,selectively inhibited growth,,,,
CC[C@H](C)[C@H](NC(=O)[C@H](CS)NC(=O)[C@H](CCCCN)NC(=O)[C@H](CC(C)C)NC(=O)[C@H](Cc1ccccc1)NC(=O)[C@H](CC(=O)O)NC(=O)[C@H](CC(C)C)NC(=O)[C@H](CCCNC(=N)N)NC(=O)[C@H](CC(N)=O)NC(=O)[C@H](Cc1ccccc1)NC(=O)CNC(=O)[C@@H](NC(=O)[C@@H](NC(=O)[C@H](Cc1c[nH]cn1)NC(=O)[C@H](CC(N)=O)NC(=O)[C@@H](NC(=O)[C@@H](NC(=O)[C@H](Cc1c[nH]cn1)NC(=O)[C@H](Cc1ccccc1)NC(=O)[C@H](CO)NC(=O)[C@@H](NC(=O)[C@@H](N)Cc1ccccc1)C(C)C)[C@@H](C)O)[C@@H](C)O)C(C)C)[C@@H](C)CC)C(=O)N[C@@H](CO)C(=O)O [Ac3] (H-FVSFHTTNHVIGFNRLDFLKCIS-OH; N-terminus and C-terminus assumed),,2%,2%,6%,18%,,,,,selectively inhibited growth
